Experimental data taken from patent US20250176553A1, “SOLUTION FOR […] AND METHOD OF PRODUCING THEREOF” (OCT, Inc., priority 2022, published 2025).
Where “and” joins values, the source holds several entries; their conditions need not be identical. Equal values may be shown once. Read-outs that look alike come from different tables or passages of the source.

What was measured:
hibiscus leaf = details: adjusted to pH 0.5; leaf surface wetted, observed after 20 hours
Method: A hibiscus leaf was divided into left and right halves by the central vein. […] The surfaces of the half leaves were observed after 20 hours.

[1] = test system: Streptococcus mutans biofilms; details: for Absorbance, Average value: average of samples 1-6; for Absorbance, Average value / Absorbance: 590 nm; for Absorbance: individual samples 1-6, 24 hours culture
From the text: (§1) FIGS. 3 to 6 show the experimental results in which Streptococcus mutans strains are actually used. Streptococcus mutans is a facultative anaerobe and a gram-positive streptococcus. It produces insoluble, sticky glucans that stick to tooth surfaces. It is one of the bacteria that mainly cause dental caries. THB (TODD-HEWITT BROTH) supplemented with 2% (w/v) sucrose was used as the medium. Sucrose is a sugar composed of the monosaccharides glucose and fructose with an α-1,2-glycosidic linkage and one of the disaccharides. THB manufactured by Becton, Dickinson and Company was used. For sucrose, “CASRN” manufactured by FUJIFILM Wako Pure Chemical Corporation was used. The plate used for culture was a Thermo Scientific Nunclon Delta Surface 96 well. The incubator used was a Panasonic multi-gas incubator MCO-5MUV-PJ. Culturing was conducted at 37° C. under an atmosphere of 5% CO2 gas, 5% O2 gas and 90% N2 gas.
(§2) Devices and the like used to measure residual biofilms are described below. For staining, 0.1% Crystal Violet from FUJIFILM Wako Pure Chemical Corporation was used. It was dissolved in distilled water to 0.1% (w/v).
(§3) Life Technologies EVOS XL Core was used as the microscope for photography. […] Co., Ltd. was used as the absorption spectrometer. The data processing software was “SF6” and the absorbance wavelength was 590 nm.
Streptococcus mutans was diluted in 2% sucrose-containing THB and 10 inoculated samples of 100 μL each were plated onto cell culture plates (Thermo Scientific Nunclon Delta Surface 96well). […] No test solution was added to one of the 10 inoculated samples.
(§4) The samples were then cultured in a multi-gas incubator for 24 hours to allow biofilms to form on the bottom of each plate. After culturing, the plates were washed with distilled water and stained with 0.1% Crystal Violet solution for 10 minutes. After staining, the plates were washed again with distilled water, dried and then observed and photographed with a bright field inverted microscope.
(§5) Crystal Violet was then extracted with 100 μL of 99.5% ethanol (FUJIFILM Wako Pure Chemical Corporation), and the absorbance was measured at a wavelength of 590 nm using an absorption spectrometer grating microplate reader.

[2] = test system: Streptococcus mutans biofilms; details: for Absorbance, Average value: average of samples 1-6, 590 nm; for Absorbance trend: FIG. 5
From the text: as §1, §2, §3
(§6) Streptococcus mutans was diluted in 2% sucrose-containing THB and 10 inoculated samples of 100 μL each were plated onto cell culture plates (Thermo Scientific Nunclon Delta Surface 96well). The samples were then cultured in a multi-gas incubator for 24 hours to allow biofilms to form on the bottom of each plate.
as §4, with “were further” for “were then”, “24 hours.” for “24 hours to allow biofilms to form on the bottom of each plate.”, “photographed using” for “photographed with”
as §5

[3] = test system: Streptococcus mutans biofilms; details: for Absorbance, Average value: average of samples 1-6; for Absorbance: individual samples 1-6, medium replaced after biofilm formation, further 24 hours
From the text: as §1, §2, §3, §6
The media were removed and the plates were washed with distilled water 24 hours after the start of cultivation. […] The samples were further cultured in a multi-gas incubator for 24 hours. After culturing, the plates were washed with distilled water and stained with 0.1% Crystal Violet solution for 10 minutes. After staining, the plates were washed again with distilled water, dried and then observed and photographed using a bright field inverted microscope.

Fn bacteria biofilms = details: for Absorbance, Average value: average of samples 1-5
Method: THB (TODD-HEWITT BROTH) supplemented with 2% (w/v) sucrose was used as the medium. Sucrose is a sugar composed of the monosaccharides glucose and fructose with an α-1,2-glycosidic linkage and one of the disaccharides. THB manufactured by Becton, Dickinson and Company was used. For sucrose, “CASRN” manufactured by FUJIFILM Wako Pure Chemical Corporation was used. The plate used for culture was a Thermo Scientific Nunclon Delta Surface 96 well. The incubator used was a Panasonic multi-gas incubator MCO-5MUV-PJ. Culturing was conducted at 37° C. under an atmosphere of 5% CO2 gas, 5% O2 gas and 90% N2 gas.
Fn bacteria were diluted in 2% sucrose-containing THB and 10 inoculated samples of […] each were plated onto cell culture plates (Thermo Scientific Nunclon Delta Surface 96well). […] No test solution was added to one of the […] inoculated samples.
as §4, with “washed” for “washed again”, “water again” for “water, dried”, “dried.” for “then observed and photographed with a bright field inverted microscope.”
as §5

[4] = for Viscosity: 4 cc added to 150 g test sample, 25° C.
Method: The starch syrup used was manufactured by KATO SANGYO CO., LTD. (product name “Kanpy starch syrup”) and the vegetable jelly used was from COOP (manufacturer: Ina Food Industry Co., Ltd.) (product name “Coop Agar”).
Solutions for destroying biofilms adjusted to various pH values and a test solution were added to test mixtures of starch syrup and Coop Agar and the viscosity of each mixture was measured. Viscosity was measured using a “Viscotester (high viscosity type) VT-06” manufactured by RION Co., Ltd.
First, starch syrup and Coop Agar were mixed in a beaker at a ratio of 34 to 5 and the viscosity was measured with a Viscotester (high viscosity type) VT-06. […] The mixture of starch syrup and Coop Agar to be used for the test (test sample) was prepared weighing 150 grams. […] To 150 g of the test sample, 4 cc of the test solution was added and the measurement was performed with a Viscotester (high viscosity type) VT-06. The room temperature was 25° C. and humidity was 63% when the test was conducted.

[2H]OS(=O)(=O)O[2H] [deuterated sulfuric acid (D2SO4)]
Leaf surface damage (white spotted areas, dead leaf cells) (hibiscus leaf): the white spotted areas surrounded by dotted lines are significantly smaller | Colour of stained plate (photograph, remaining biofilm) ([1]; pH 0.8, 1.2 and 1.5, FIG. 3 upper panel): biofilm formation is significantly inhibited and destroyed | Absorbance, Average value ([1]; pH 0.8): 0.089 | Absorbance ([1]; pH 0.8): 0.089 (3×) and 0.090 (2×) and 0.088 | Absorbance, Average value ([1]; pH 1.2): 0.096 | Absorbance, Average value ([1]; pH 1.5): 0.100 | Absorbance ([1]; pH 2.3): 0.734 | Absorbance ([1]; pH 3.3): 0.876 | Absorbance ([1]; pH 3.7): 0.874 | Absorbance ([1]; pH 4.0): 0.733 | Biofilm formation from absorbance trend ([1]; pH value below 2.3, FIG. 4): almost no biofilm was formed | Colour of stained plate (photograph, remaining biofilm) ([2]; lower pH values, FIG. 3 middle panel): more biofilms were destroyed | Absorbance, Average value ([2]; pH 0.8): 0.678 | Absorbance, Average value ([2]; pH 1.2): 1.164 | Absorbance, Average value ([2]; pH 1.5): 1.250 | Absorbance, Average value ([2]; pH 2.3): 1.288 | Absorbance, Average value ([2]; pH 2.7): 1.375 | Absorbance, Average value ([2]; pH 3.0): 1.457 | Absorbance, Average value ([2]; pH 3.3): 1.226 | Absorbance, Average value ([2]; pH 3.7): 1.354 | Absorbance, Average value ([2]; pH 4.0): 1.346 | Absorbance trend ([2]; pH value below 1.5): absorbance decreased rapidly | Absorbance trend ([2]; pH value below 3.0): absorbance decreased gradually | Colour of stained plate (photograph, remaining biofilm) ([3]; lower pH values, FIG. 3 lower panel): more biofilms were destroyed | Absorbance, Average value ([3]; pH 0.5): 0.590 | Absorbance ([3]; pH 0.5): 0.438 and 0.570 | Absorbance, Average value ([3]; pH 0.8): 0.729 | Absorbance ([3]; pH 0.8): 0.649 and 0.678 | Absorbance ([3]; pH 1.2): 0.948 and 0.729 and 0.723 | Absorbance, Average value ([3]; pH 2.0): 0.989 | Absorbance ([3]; pH 2.0): 0.951 and 0.966 and 0.921 | Absorbance, Average value ([3]; pH 2.3): 1.083 | Absorbance ([3]; pH 2.3): 1.091 and 1.052 and 1.038 | Absorbance, Average value ([3]; pH 2.7): 1.098 | Absorbance ([3]; pH 2.7): 1.167 and 1.149 and 1.070 | Absorbance, Average value ([3]; pH 3.0): 1.038 | Absorbance ([3]; pH 3.0): 1.036 and 1.113 | Absorbance, Average value ([3]; pH 3.3): 1.113 | Absorbance ([3]; pH 3.3): 1.044 and 1.117 and 1.054 | Absorbance, Average value ([3]; pH 3.7): 1.107 | Absorbance ([3]; pH 3.7): 1.157 and 1.116 and 1.040 | Biofilm destruction from absorbance trend ([3]; pH below 2.0, FIG. 6): biofilms are destroyed | Absorbance, Average value (Fn bacteria biofilms; pH 0.5, 590 nm): 0.123 | Absorbance (Fn bacteria biofilms; pH 0.5, individual samples 1-5, 590 nm, 24 hours culture): 0.123 (2×) and 0.124 (2×) and 0.122 | Absorbance, Average value (Fn bacteria biofilms; pH 2.0, 590 nm): 0.320 | Absorbance, Average value (Fn bacteria biofilms; pH 3.0, 590 nm): 0.386 | Absorbance, Average value (Fn bacteria biofilms; pH 4.0, 590 nm): 0.425 | Absorbance, Average value (Fn bacteria biofilms; pH 5.0, 590 nm): 0.441 | Absorbance, Average value (Fn bacteria biofilms; pH 6.0, 590 nm): 0.465 | Biofilm formation from absorbance trend (Fn bacteria biofilms; pH value below 4.5, compared to pH 6.0, FIG. 7): biofilm formation was made more difficult | Viscosity reduction compared to pH 7.0 ([4]; pH 0.5): ⅓ | Viscosity ([4]; test solution pH 0.5): 130 dPa · s | Viscosity ([4]; test solution pH 2.0): 150 dPa · s | Viscosity ([4]; test solution pH 3.0): 180 dPa · s | Viscosity ([4]; test solution pH 4.0): 210 dPa · s | Viscosity ([4]; test solution pH 5.0): 240 dPa · s | Viscosity ([4]; test solution pH 6.0): 310 dPa · s

O=S(=O)(O)O [sulfuric acid (H2SO4), reference compound]
Leaf surface damage (white spotted areas, dead leaf cells) (hibiscus leaf): areas where leaf cells are dead
